The numbers were not newly measured in patent US7901689B2, “Chimeric peptides as immunogens, antibodies thereto, and methods for immunization using chimeric peptides or antibodies” (Intellect Neurosciences, Inc., priority 1999, dated 2011), which cites them from elsewhere.

Series [1] concerns Aβ production. Conditions: Knops et al., 1995, Haass et al., read-out: EC50 for inhibition of Aβ production.
Series [2] has as its system Aβ-induced toxicity in cultured neurons. Conditions: Yankner et al., 1995.
Series [3] has as its system Alzheimer's disease-like pathology in PDAPP transgenic mice. Conditions: Schenk et al. 1999.

pEC50: −log10 of the molar value.

`CO/C1=C\C(C)=C\[C@@H](C)[C@@H](O)[C@@H](C)C/C(C)=C/C=C/[C@H](OC)[C@@H]([C@@H](C)[C@@H](O)[C@H](C)[C@@]2(O)C[C@@H](O)[C@H](C)[C@@H](C(C)C)O2)OC1=O` [Bafilomycin]: the negative logarithm of the EC50 (pEC50) (usually −log10 of the EC50, conventionally taken in molar units) in series [1] was approximately 7.30.

As to `Nc1c(/N=N/c2ccc(-c3ccc(/N=N/c4cc(S(=O)(=O)O)c5ccccc5c4N)cc3)cc2)cc(S(=O)(=O)O)c2ccccc12` [Congo Red], in series [2], the “Aβ-induced toxicity in cultured neurons” value is on record as “completely inhibits”.

With “amyloid-β: intact amyloid-β used as immunogen by Schenk et al. (1999)”, the “development of β-amyloid plaque formation, neuritic dystrophy and astragliosis” value in series [3] (immunization of young animals prior to onset of neuropathologies) was “essentially prevented”. The “extent and progression of Alzheimer's disease-type neuropathologies” value in series [3] (treatment in older animals after onset of neuropathologies) was “reduce the extent and progression”.
